Results on one substance are retold here after publication PMC8236048, “Pharmaceutical design of a delivery system for the bacteriocin lacticin 3147” (Drug Delivery and Translational Research, 2021).

Broadly, the zone of inhibition is the extent of the growth-free halo in a diffusion test.

For series [1], the target named is T1, pepsin (Sus scrofa, UniProt P00791).
T1 construct: purchased Sigma-Aldrich Ireland Ltd
Nature of the series: Enzyme degradation of lacticin 3147 by pepsin (activity, MALDI-TOF, RP-HPLC). It is filed as in vitro ADME. The settings on record: 25 mg/ml pepsin, 3 h, 37 °C, pH 2.29; then growth curve at 400 nM peptides. Here is the method:
Lacticin 3147 production was confirmed by matrix-assisted laser desorption ionization-time of flight (MALDI-TOF) mass spectrometry using sinapinic acid as the matrix. About 0.7 μl of the matrix solution (sinapinic acid, 4 mg/ml in 50% acetone/50% methanol) was added to the target plate and left to evaporate (30 s) at ambient conditions. Individual peptides (Ltnα or Ltnβ) were resuspended in 70% IPA and mixed at a 1:1 volume ratio with a 10-mg/ml stock solution of sinapinic acid in 60% ACN with 0.1% TFA. About 0.3 μl of this peptide-matrix solution was then added to the matrix layer previously applied to the plate and evaporated at ambient conditions. The plate was inserted into a MALDI-TOF Ultraflex mass spectrometer (Bruker) and analysed using reflectron positive 700–3500 Da mode. 100 shots were fired at 88% intensity. This method was also used for the analyses of samples from the enzyme degradation studies.
All lacticin 3147 samples were filtered through a 0.2-µm PES filter before analysis by RP-HPLC using an Agilent 1200 Infinity Series HPLC (Agilent Technologies, USA). The HPLC separations were carried out on an Aeris 3.6 µm Peptide 100 Å 250 × 4.6 mm, liquid chromatography column with a flow rate of 0.8 ml/min, and with 0.1% trifluoroacetic acid (TFA) in water as aqueous phase-A and 0.1% TFA in acetonitrile (ACN) as organic phase-B. The total run time was 51 min. The mobile phase started with 30:70 A:B for 3 min and change linearly to 35:65 A:B over 30 min. The organic phase was then adjusted to 100% within 1 min and continued to flow for 5 min. After this, the mobile phase returned to the initial ratio to stabilize the chromatographic system. The detector was set at 214 nm. The peak area (mAU) was plotted against the concentration (1.56–500 µg/ml) to make a calibration curve. The coefficients of determination (R^2 values) were 0.9963 and 0.9983 for Ltnα and Ltnβ respectively. This method was subsequently used for quantitative analysis of Ltnα and Ltnβ.
Trypsin and α-chymotrypsin stock solutions (50 mg/ml) were resuspended in water. Pepsin (50 mg/ml) was resuspended in 0.02 M HCL. About 1 mg/ml individual solutions of Ltnα and Ltnβ in 70% IPA were filtered and diluted (1 in 20) in sterile PBS to give a final peptide concentration of 50 µg/ml. After this, 5.3 µl Ltnα and 4.6 µl Ltnβ were added to the same well of a 96-well plate. The pH of the lacticin 3147-pepsin solution was 2.29. Control wells consisting of Ltnα and Ltnβ together, Ltnα alone, and Ltnβ alone with no enzyme were included. The 96-well plate was incubated for 3 h at 37 °C to allow the enzyme to act. After incubation, the wells were filled to 50 μl with PBS and 150 μl of diluted bacterial cell culture (L. monocytogenes at an OD of 0.1) was added to each well. The final peptide concentration of 400 nM (1.31 µg/ml Ltnα, 1.14 µg/ml Ltnβ) was obtained when the wells were filled to 200 µl. Blanks were set up in triplicate with media only and PBS only. The three control wells were also set up with bacterial culture and each enzyme only. […] The effect of the proteases pepsin, α-chymotrypsin, and trypsin on the lacticin 3147 peptides was determined by MALDI-TOF mass spectrometry. […] After 3 h, 1 µl was removed from each sample and it was analysed by MALDI-TOF mass spectrometry. […]
Pepsin’s effect on lacticin 3147 was also investigated by RP-HPLC. […] After incubation, aliquots were taken, filtered, and analysed by RP-HPLC to determine if pepsin degrades Ltnα or Ltnβ to any extent.

In series [2] the test system is L. monocytogenes ATCC1916. Nature of the series: Well diffusion assay, lacticin 3147 SLNs vs free peptide. It is filed as cell-based. The settings on record: 6-mm wells, 12.5 µL α + 12.5 µL β component, 0.2 µm filtered, free peptide in water at the total peptide content of the SLNs, mean ± SD. On the procedure:
The activity of the lacticin 3147 SLNs was evaluated using the well diffusion assay method, on TSA supplemented with 6 g/L yeast. The inhibition zones were reported in millimetre (mm) using electronic Vernier callipers. […] Wells were bored in the agar after it hardened using a sterile 6-mm cork borer. α-SLN and β-SLN were filtered using a 0.2-μm PES filter (SLNs can pass through), and 12.5 μL of each was added to the same well. The blank SLNs were used as negative controls (25 μL). […] The free peptides were filtered again using a 0.2-μm PES filter before addition to the wells to ensure sterility. All tests were performed in triplicate.
In general terms: A growth-free zone around the sample is the usual read-out of agar diffusion tests.

Series [3] has as its system L. monocytogenes ATCC1916. As to the kind of experiment: Well diffusion assay after incubation with α-chymotrypsin. It is filed as cell-based. Here is the method:
α-SLN and β-SLN were filtered using a 0.2-µm PES filter, and 25 µl of each were added to the same well of a 96-well plate. About 50 µl of a 50 mg/ml solution of α-chymotrypsin was added to these wells. A blank was set up with 50-µl water instead of α-chymotrypsin. This was repeated for free peptide solutions prepared as outlined above. The 96-well plate was incubated for 3 h at 37 °C. The 96-well plate was then removed from the incubator, and 25 µl of each solution was added in triplicate to 6-mm wells on TSA (6 g/L yeast) plates inoculated with 200 µl L. monocytogenes ATCC1916. The plates were incubated at 37 °C for 24 h, after which the inhibition zones were measured using an electronic Vernier callipers.

The conditions of series [4]: cited from earlier work. An excerpt:
(§1) Gardiner et al., however, reported that α-chymotrypsin alone degrades lacticin 3147 [21]. Lacticin 3147 is heat stable, pH stable, and active at a neutral pH [9]. However, quantitative data on the amount of lacticin 3147 dissolved, i.e. its solution concentration, is rarely reported. In fact, only a handful of quantitative solubility studies on bacteriocins can be found in the literature [[ ...

For series [5], the target named is T1, pepsin. The settings on record: cited from earlier work.
Source text: as §1

The next series relates to trypsin. The settings on record: cited from earlier work.
Source text: as §1

T1 sequence (P00791 60-385): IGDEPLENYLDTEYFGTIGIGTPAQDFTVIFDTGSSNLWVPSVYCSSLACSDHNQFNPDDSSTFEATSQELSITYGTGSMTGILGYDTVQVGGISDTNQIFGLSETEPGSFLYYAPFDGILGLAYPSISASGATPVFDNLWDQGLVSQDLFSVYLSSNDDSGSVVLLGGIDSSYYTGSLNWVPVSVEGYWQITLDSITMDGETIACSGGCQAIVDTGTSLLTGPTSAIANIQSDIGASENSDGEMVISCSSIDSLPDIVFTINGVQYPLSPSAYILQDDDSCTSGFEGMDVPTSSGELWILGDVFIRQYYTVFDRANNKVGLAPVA

Consider lacticin 3147, for which the “activity against L. monocytogenes ATCC 1916 after incubation with pepsin” value on pepsin [1] is reported as “remains active”. In series [2], the zone of inhibition was determined as 12.9 ± 0.3 mm. For the same substance, the “zone of inhibition after incubation with α-chymotrypsin, single well” value is listed as 6 mm in series [3] (Fig. 11, first value printed in the picture of the plate); 6.1 mm in series [3] (Fig. 11, second value printed in the picture of the plate); 6 mm in series [3] (Fig. 11, third value printed in the picture of the plate). For the same substance, the heat stability result in series [4] is listed as “heat stable”. The pH stability entry in series [4] is reported as “pH stable”. The “effect of pepsin on activity” value at pepsin [5] was “unaffected”. Also, in the series on trypsin, the effect of trypsin result is “degraded and inactivated”.
